Here are results for 4 compounds from patent publication US20040110177A1, “Method for identifying functional nucleic acids” (priority 2003, published 2004).

Common to all, as to type: cell-based, human
The test system of one assay is Hela S3. As to the kind of experiment: Anti-Fas (CH-11) induced apoptosis with kinase inhibitors, FACS sub-G1 nuclei, Hela S3. The note with it: Hela S3, 100 ng/ml CH-11, no FCS; SU 5402 10 μM, AG 1295 1 μM, SB 203580 10 μM. As to the method: (§1) Cells were grown in Ham's F12 medium without FCS and treated with 100 ng/ml anti-Fas antibody CH-11 with and without inhibitors. Apoptosis was measured by FACS analysis as described in the examples. SU 5402: 10 μM, AG 1295: 1 μM, SB 203580: 10 μM, PD 98059: 25 μM.
(§2) 50000 cells per well obtained from the parental cell line Hela S3 or from the clones, respectively, were grown in a 12 well cell culture dish for 2 days in 2 ml Ham's F12 medium containing 10% FCS. On the third day the cells were washed twice with 1 ml Ham's F12 medium and then the medium exchanged against 1 ml Ham's F12 medium. On the next day the medium was supplemented with the respective inhibitors and 100 to 200 ng/ml CH-11. On the next day the medium was decanted and transferred to an Eppendorf tube. The cells were washed once with 200 μl PBS, the PBS was transferred to the respective Eppendorf tube. Then the remaining cells were also transferred to the respective Eppendorf tube after treatment with EDTA/trypsin in PBS. The cells were pelleted by centrifugation, suspended in 500 μl hypotonic buffer (0.1% sodium citrate, 0.1% Triton-X100, 20 μg/ml propidium iodide) and incubated for 2-24 hours at 4° C. The resutling cell nuclei were analyzed by FACS.
(§3) The propidium iodide fluorescence of single nuclei was determined using a FACSCalibur (Becton Dickinson) cytometer. The forward scatter light (FSC) and the side scatter light (SSC) were recorded simultaneously. The FSC peak was adjusted at channel 500 in a 1024 channel linear scale and the red fluorescence peak at channel 200 of a logarithmic scale. The FSC cut-off value was determined by gating to 95% of the greatest nuclei of a negative control without supplements. Nuclei were classified as apoptotic when a subdiploid signal between the G1/G0 peak and channel 10 was present.

In assay [1] the test system is clone 14 (apoptosis-resistant Hela S3 clone). Briefly: Anti-Fas (CH-11) induced apoptosis with kinase inhibitors, FACS sub-G1 nuclei, clone 14. Particulars: clone 14, 100 ng/ml CH-11, no FCS; for change in number of apoptotic cells / apoptosis rate (in words): AG 1295 1 μM, PD 98059 25 μM; for increase in apoptosis: SU 5402 10 μM, SB 203580 10 μM. As to the method:
as §1
The cervix carcinoma cell line Hela S3 (ATCC CCL-2.2) was plated on 10 cm cell culture dishes (10^5 cells) in Ham's F12 growth medium containing 10% FCS. On the next day the medium was exchanged against medium without FCS supplemented with 100 ng/ml apoptosis activating anti-Fas antibody CH-11 (Coulter Immunotech). After 3 days when most of the cells were dead, the medium was exchanged once more against the medium containing 10% FCS without antibody. The surviving cells were clonally cultivated for 3 weeks. The clones were picked and expanded.
as §2, §3

Assay [2] deals with clone 5 (apoptosis-resistant Hela S3 clone). As to the kind of experiment: Anti-Fas (CH-11) induced apoptosis with kinase inhibitors, FACS sub-G1 nuclei, clone 5. Particulars: clone 5, CH-11; SU 5402, AG 1295. As to the method:
as §1
(§4) The cervix carcinoma cell line Hela S3 (ATCC CCL-2.2) was plated on 10 cm cell culture dishes (10^5 cells) in Ham's F12 growth medium containing 10% FCS. On the next day the medium was exchanged against medium without FCS supplemented with 100 ng/ml apoptosis activating anti-Fas antibody CH-11 (Coulter Immunotech). […]
(§5) 50000 cells per well obtained from the parental cell line Hela S3 or from the clones, respectively, were grown in a 12 well cell culture dish for 2 days in 2 ml Ham's F12 medium containing 10% FCS. […] The resutling cell nuclei were analyzed by FACS.
(§6) The propidium iodide fluorescence of single nuclei was determined using a FACSCalibur (Becton Dickinson) cytometer. The forward scatter light (FSC) and the side scatter light (SSC) were recorded simultaneously. The FSC peak was adjusted at channel 500 in a 1024 channel linear scale and the red fluorescence peak at channel 200 of a logarithmic scale. The FSC cut-off value was determined by gating to 95% of the greatest nuclei of a negative control without supplements. […]

For assay [3], the system named is clone 20 (apoptosis-resistant Hela S3 clone). As to the kind of experiment: Anti-Fas (CH-11) induced apoptosis with kinase inhibitors, FACS sub-G1 nuclei, clone 20. Particulars: clone 20, 100 ng/ml CH-11, no FCS; SB 203580 10 μM, PD 98059 25 μM. As to the method: as §1, §4, §5, §6

As for `Cc1cc2ncc(-c3ccccc3)nc2cc1C` [AG 1295], the increase in apoptosis result with Hela S3 was “about 30%”; in assay [2], 30%. Moreover, the “change in number of apoptotic cells / apoptosis rate (in words)” value in assay [1] is on record as “nearly in a doubling of the number of apoptotic cells”.
In the case of `COc1cccc(-c2cc(=O)c3ccccc3o2)c1N` [PD 98059], the “change in apoptosis rate (in words)” value in assay [3] was “triples the apoptosis rate”. In assay [1], the “change in number of apoptotic cells / apoptosis rate (in words)” value is given as “doubling of the apoptosis rate”.
In the case of `C[S+]([O-])c1ccc(-c2nc(-c3ccncc3)c(-c3ccc(F)cc3)[nH]2)cc1` (centres unmarked) [SB 203580], the increase in apoptosis amounted to 25% in the assay on Hela S3 and 60% in assay [1]. Further, the “change in apoptosis rate (in words)” value in assay [3] is “slight increase of apoptosis”.
As for `Cc1c[nH]c(/C=C2\C(=O)Nc3ccccc32)c1CCC(=O)O` [SU 5402], the increase in apoptosis result in the assay with Hela S3 is “about 50%”; in assay [1] it was approximately 300%; in assay [2], “about 50%”.
